# What was measured:
# [1] = Brain pharmacokinetics of CBD and THC after single oral dose of Cannabis sativa extract; details: for mean concentration over time / Kp / concentration at 0.5 h / concentration at 1 h / concentration at 2 h / concentration at 4 h / concentration at 6 h / AUC(0-t) / Cmax / MRT: single oral dose of extract 30 mg/kg; for mean concentration over time: Table 7; for Kp: brain / whole blood, AUCbrain:AUC whole blood (AUC0–24 ratio); for concentration at 0.5 h / concentration at 1 h / concentration at 2 h / concentration at 4 h / concentration at 6 h: oral; for AUC(0-t): AUC0–24, brain
# [2] = Whole-blood pharmacokinetics of CBD and THC after single oral dose of Cannabis sativa extract; details: whole blood, single oral dose of extract 30 mg/kg; for concentration at 0.5 h / concentration at 1 h / concentration at 2 h / concentration at 4 h / concentration at 6 h / concentration at 24 h / AUC(0-t) / Cmax / MRT / Tmax: male, Wistar, rat, 30 mg/kg; for concentration at 0.5 h / concentration at 1 h / concentration at 2 h / concentration at 4 h / concentration at 6 h / concentration at 24 h: oral; for AUC(0-t) / Cmax / MRT / Tmax: po; for AUC(0-t): AUC0–24, whole blood
# [3] = mini-pigs; oral CBD 15 mg/kg; cited from earlier work
# [4] = 12 healthy volunteers; chocolate cookies with 0.57 mg/kg CBD + 0.28 mg/kg THC; after 1.5–3 h; cited from earlier work
# [5] = rats; 3 or 6 h after oral CBD 50 mg/kg in olive oil; cited from earlier work
# [6] = male, Wistar, rat, brain, po, 30 mg/kg, Cremophor
# [7] = male, Wistar, rat, brain, po, 30 mg/kg, Rapae oleum
# [8] = Mean Concentration ± SD, blood, Rapae oleum
# [9] = Mean Concentration, blood, Cremophor
# [10] = mean concentration over time, Blood/Cremophor, Table 7
# [11] = mean concentration over time, Blood/Rapae Oleum, Table 7
structure (smiles),measurement,setting,value
"CCCCCc1cc(O)c2c(c1)OC(C)(C)[C@@H]1CCC(C)=C[C@@H]21 [THC, Δ-9-tetrahydrocannabinol]",mean concentration over time,"[1]; Brain/Cremophor, 0.5 h",18.575
same,mean concentration over time,"[1]; Brain/Cremophor, 1 h",49.521
same,mean concentration over time,"[1]; Brain/Cremophor, 2 h",56.85
same,mean concentration over time,"[1]; Brain/Cremophor, 4 h",35.976
same,mean concentration over time,"[1]; Brain/Cremophor, 6 h",35.947
same,mean concentration over time,"[1]; Brain/Cremophor, 24 h",1.154
same,mean concentration over time,"[1]; Brain/Rapae oleum, 0.5 h",3.719
same,mean concentration over time,"[1]; Brain/Rapae oleum, 1 h",43.593
same,mean concentration over time,"[1]; Brain/Rapae oleum, 2 h",75.768
same,mean concentration over time,"[1]; Brain/Rapae oleum, 4 h",27.792
same,mean concentration over time,"[1]; Brain/Rapae oleum, 6 h",3.7605
same,mean concentration over time,"[1]; Brain/Rapae oleum, 24 h",0
same,Kp,"[1]; male, Wistar, rat, po, 30 mg/kg, Cremophor",1.22
same,Kp,"[1]; male, Wistar, rat, po, 30 mg/kg, Rapae oleum",3.72
same,concentration at 0.5 h,"[1]; male, Wistar, rat, brain, 30 mg/kg, Mean Concentration ± SD, Rapae oleum, 0.5 h",3.72 ± 2.35 ng/g
same,concentration at 1 h,"[1]; male, Wistar, rat, brain, 30 mg/kg, Mean Concentration ± SD, Rapae oleum, 1 h",43.6 ± 24.8 ng/g
same,concentration at 2 h,"[1]; male, Wistar, rat, brain, 30 mg/kg, Mean Concentration ± SD, Rapae oleum, 2 h",75.8 ± 43.8 ng/g
same,concentration at 4 h,"[1]; male, Wistar, rat, brain, 30 mg/kg, Mean Concentration ± SD, Rapae oleum, 4 h",27.8 ± 15.2 ng/g
same,concentration at 6 h,"[1]; male, Wistar, rat, brain, 30 mg/kg, Mean Concentration ± SD, Rapae oleum, 6 h",3.76 ± 2.61 ng/g
same,concentration at 0.5 h,"[1]; male, Wistar, rat, brain, 30 mg/kg, Mean Concentration, Cremophor, 0.5 h",18.6 ± 11.6 ng/g
same,concentration at 1 h,"[1]; male, Wistar, rat, brain, 30 mg/kg, Mean Concentration, Cremophor, 1 h",49.5 ± 9.47 ng/g
same,concentration at 2 h,"[1]; male, Wistar, rat, brain, 30 mg/kg, Mean Concentration, Cremophor, 2 h",56.9 ± 7.39 ng/g
same,concentration at 4 h,"[1]; male, Wistar, rat, brain, 30 mg/kg, Mean Concentration, Cremophor, 4 h",36 ± 7.45 ng/g
same,concentration at 6 h,"[1]; male, Wistar, rat, brain, 30 mg/kg, Mean Concentration, Cremophor, 6 h",35.9 ± 12.7 ng/g
same,Tmax,"[1]; male, Wistar, rat, brain, po, 30 mg/kg",4 h
same,AUC(0-t),[1]; [6],656 ng·h/mL
same,AUC(0-t),[1]; [7],553 ng·h/mL
same,Cmax,[1]; [6],56.9 ng/g
same,Cmax,[1]; [7],75.8 ng/g
same,MRT,[1]; [6],5.11 h
same,MRT,[1]; [7],7.19 h
same,concentration at 0.5 h,[2]; [8],11.9 ± 18 ng/g
same,concentration at 1 h,[2]; [8],11 ± 5.21 ng/g
same,concentration at 2 h,[2]; [8],24 ± 7.22 ng/g
same,concentration at 4 h,[2]; [8],26.2 ± 19.1 ng/g
same,concentration at 6 h,[2]; [8],10.3 ± 2.1 ng/g
same,concentration at 24 h,[2]; [8],0.445 ± 0.21 ng/g
same,concentration at 0.5 h,[2]; [9],13.1 ± 10.9 ng/g
same,concentration at 1 h,[2]; [9],18.5 ± 1.98 ng/g
same,concentration at 2 h,[2]; [9],14 ± 3.3 ng/g
same,concentration at 4 h,[2]; [9],8.01 ± 1.48 ng/g
same,concentration at 6 h,[2]; [9],9.04 ± 4.39 ng/g
same,concentration at 24 h,[2]; [9],3.79 ± 4.59 ng/g
same,concentration at 0.5 h,[2]; [10],13.1 ng/mL
same,concentration at 1 h,[2]; [10],18.5 ng/mL
same,concentration at 2 h,[2]; [10],14 ng/mL
same,concentration at 4 h,[2]; [10],8.01 ng/mL
same,concentration at 6 h,[2]; [10],9.04 ng/mL
same,concentration at 24 h,[2]; [10],3.79 ng/mL
same,concentration at 0.5 h,[2]; [11],11.9 ng/mL
same,concentration at 1 h,[2]; [11],11 ng/mL
same,concentration at 2 h,[2]; [11],24 ng/mL
same,concentration at 4 h,[2]; [11],26.2 ng/mL
same,concentration at 6 h,[2]; [11],10.3 ng/mL
same,concentration at 24 h,[2]; [11],0.445 ng/mL
same,AUC(0-t),[2]; Cremophor,217 ng·h/mL
same,AUC(0-t),[2]; Rapae oleum,186 ng·h/mL
same,Cmax,[2]; Cremophor,18.5 ng/mL
same,Cmax,[2]; Rapae oleum,26.2 ng/mL
same,MRT,[2]; Cremophor,12.7 h
same,MRT,[2]; Rapae oleum,5.75 h
same,Tmax,[2]; Cremophor,1 h
same,Tmax,[2]; Rapae oleum,4 h
same,CL,[2]; Cremophor,2.18 L/h
same,Vd,[2]; Cremophor,28.26 L
same,CL,[2]; Rapae oleum,2.56 L/h
same,Vd,[2]; Rapae oleum,15.15 L
same,Δ9-THC after oral CBD,[3],did not detect
same,whole-blood concentration,[4],about 5 ng/mL
same,Δ9-THC in the blood after oral CBD,[5],did not detect
